Reference: the supplement of paper PMC12533247

Key:
[1] = tested on: primary dermal fibroblasts; assay: % change in live cells vs DMSO control; higher = less cytotoxic; conditions: time (h post treatment): 48
Experimental: (§1)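 Cytotoxicity in uninfected 2D primary donor keratinocytes (20 h post treatment) and fibroblasts (48 h post treatment), measured with NucSpot live/dead dyes on IncuCyte. Live cells are normalised to the 0.2% DMSO control and shown as % change. Three biological replicates for each of donors 3, 4 and 5.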

primary keratinocytes = assay: as above; conditions: time (h post treatment): 20
Experimental: as §1

[2] = tested on: HSV-1 K26-GFP infected primary human skin cells; assay: % change of HSV-1 GFP signal vs untreated infected cells; higher = less antiviral inhibition
Experimental: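 2D primary donor-derived keratinocytes (read at 20 hpi) and donor-matched dermal fibroblasts (read at 48 hpi) infected with GFP-HSV-1 K26 at MOI 1 and treated 1 h later with compound dilutions. IncuCyte GFP integrated intensity is normalised by subtracting mock-infected wells and dividing by untreated infected wells, shown as % change (-100 = full inhibition).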

[3] = tested on: HSV-1 K26-GFP infected 3D skin equivalent; assay: % change of tdTomato fibroblast signal relative to infected DMSO control; higher = higher signal (negative = inhibition / toxicity); conditions: time (h post infection): 48
Experimental: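 Triplicate dose-response (0.04 to 10 uM) of 11 top compounds in 3D bioprinted skin equivalents (submerged and ALI models) infected with GFP-HSV-1 K26 at MOI 0.1 and fixed at 48 hpi. GFP (virus) and tdTomato (fibroblast viability) signals are normalised to per-plate controls.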

O=C(Nc1ccc([N+](=O)[O-])cc1Cl)c1cc(Cl)ccc1O [Niclosamide]
Conditions	% change in live cells, donor: 3 [%]	% change in live cells, donor: 4 [%]	% change in live cells, donor: 5 [%]	% change of tdTomato fibroblast signal, model: ALI [%]	% change of tdTomato fibroblast signal, model: submerged [%]
[1], 0.082305 µM	-18.7	3	5	–	–
[1], 0.246914 µM	-17	2.67	1.67	–	–
[1], 0.740741 µM	-16	-0.333	-1	–	–
[1], 2.22222 µM	-24.7	-2	-2.67	–	–
[1], 6.66667 µM	-35	-9	-26	–	–
[1], 20 µM	-49.7	-41.7	-63	–	–
[1], 60 µM	-56	-38	-74.33	–	–
[3], 0.041152 µM	–	–	–	8.37	-8.01
[3], 0.123457 µM	–	–	–	0.996	-14.3
[3], 0.37037 µM	–	–	–	-9.97	-34
[3], 1.111111 µM	–	–	–	-7.62	-44.6
[3], 3.33333 µM	–	–	–	-10.3	-44.5
[3], 10 µM	–	–	–	-8.58	-47.05
primary keratinocytes, 0.082305 µM	-8	-13	-11.7	–	–
primary keratinocytes, 0.246914 µM	-11.7	-20.7	-11.3	–	–
primary keratinocytes, 0.740741 µM	-30	-20.7	-8	–	–
primary keratinocytes, 2.22222 µM	-14.3	-15.3	-13.3	–	–
primary keratinocytes, 6.66667 µM	-23	-13	-9	–	–
primary keratinocytes, 20 µM	-61.7	-25.7	-26.7	–	–
primary keratinocytes, 60 µM	-68	-69.7	-54.7	–	–

% change of HSV-1 GFP signal [%], [2]
Conditions	0.003 µM	0.0091 µM	0.0274 µM	0.0823 µM	0.2469 µM	0.7407 µM	2.2222 µM	6.6667 µM	20 µM	60 µM
cell type: primary dermal fibroblasts, donor: 5, time (h post infection): 48	-6.14	-7.3	-10.1	-19.9	-37	-51.4	-90	-99.53	-99.789	-99.78
cell type: primary keratinocytes, donor: 3, time (h post infection): 20	4.62	3.94	6.19	9.78	4.16	0.034	-16.7	-24.7	-62.7	-81.3
cell type: primary keratinocytes, donor: 4, time (h post infection): 20	-0.953	-7.59	-0.315	-0.334	-9.22	-11.5	-22.6	-42.3	-61.2	-95.4
cell type: primary keratinocytes, donor: 5, time (h post infection): 20	2.55	-1.84	0.0858	1.91	2.59	-2.44	-35.9	-52.8	-76.5	-95.1
